Molecular target: Beta-2 adrenergic receptor (Homo sapiens, UniProt P07550)
Test: Displacement of [3H]-CGP-12177 from human beta2-adrenergic receptor

Sequence of Beta-2 adrenergic receptor (P07550 whole entry): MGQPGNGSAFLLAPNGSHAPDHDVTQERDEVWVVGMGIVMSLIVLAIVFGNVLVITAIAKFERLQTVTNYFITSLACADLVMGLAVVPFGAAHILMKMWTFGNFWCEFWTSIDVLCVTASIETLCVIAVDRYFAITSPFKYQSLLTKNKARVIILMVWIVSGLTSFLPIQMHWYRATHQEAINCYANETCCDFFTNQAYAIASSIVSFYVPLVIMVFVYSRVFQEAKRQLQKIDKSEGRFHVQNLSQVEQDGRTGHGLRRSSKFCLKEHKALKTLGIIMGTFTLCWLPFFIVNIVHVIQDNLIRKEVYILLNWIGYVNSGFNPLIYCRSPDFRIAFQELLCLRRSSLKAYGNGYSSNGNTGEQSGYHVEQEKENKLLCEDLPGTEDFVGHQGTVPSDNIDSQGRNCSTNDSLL

Structure (SMILES) | IC50 [nM]
COc1cc2c3c(c1OC)-c1ccccc1[C@@H](O)[C@]3(C)NCC2 (relative stereo) | 20
COc1cc2c3c(c1OC)-c1ccccc1[C@H](O)[C@H]3NCC2 | 1600

— ChEMBL document CHEMBL4257493, “Discovery of 7-hydroxyaporphines as conformationally restricted ligands for beta-1 and beta-2 adrenergic receptors” (Medchemcomm, 2018)
